# Read-outs that look alike come from different tables or passages of the source.
# Columns and labels:
# primary cardiomyocytes [1] = assay: TUNEL assay, primary cardiomyocytes treated with 3 μM Doxorubicin for 6 hours (Table 1); assay type: cell-based; conditions: Cardiomyocyte
# Method: (§1) Primary cardiomyocyte monologues covered by serum free media (SF) were treated with DMSO (vehicle), Doxorubicin (DOX) (300 nM), Imatinib (Imat) (5 μM), and/or LCB2122 at varying concentrations (0.1, 0.5, 1.5 at 10 μM) diluted in SF for 3, 6, 18 or 24 hours. The TUNEL assay (Terminal Deoxynucleotidyltransferase mediated dUTP End Labeling) was utilized to detect apoptotic nuclei using an Apop Tag Red in Situ Apoptosis Detection Kit (Millipore, Temecula, Calif.). A Zeis fluorescent microscope was used for image acquisition. Cell counting was done using the Imager® Software.
# The cardioprotective profile of LCB2122, LC2165, LCB2191 and LCB2177 were also investigated. As above, primary cardiomyocytes were treated with 3 μM of Doxorubicin for 6 hours alone or with the above compounds of the invention. The TUNEL assay was utilized to detect apoptotic nuclei. […] LCB2165, LCB2191 and LCB2177 were also active with IC50's of 5 μM.
# [2] = test system: wild type mice, DOX-induced toxicity; assay: In vivo echocardiography in DOX-treated mice
# Method: (§2) Mice were handled in accordance with institutional guidelines for animal care. Experiments were approved by the institutional Animal Care Committees and the investigation conforms with the Guide for the Care and Use of Laboratory Animals published by the US National Institutes of Health (NIH Publication N. 85-23, revised 1985). Doxorubicin treatment was a single ip injection of 5 or 15 mg/kg as previously described by Aries et al.^6 ALZET micro-osmotic pumps (Model 1002, 0.25 μl/hr, 14 days) were filled with DMSO, Ang II (0.5 μgKg/day) LCB2122 (2.0 or 2.8 μg/Kg/day) diluted in normal saline and inserted subcutaneously in mice for two weeks. M-mode echocardiography was performed using Visual-Sonics VEVO 2100 system and 30-MHz linear array transducer, on lightly anesthetized mice using […], 80 ml/min of 100% oxygen, as described by Aries et al. and echocardiographic indices were calculated as described by Yang et al.^17 Heart failure was defined as EF<45%.
# AT1R mice = assay: Echocardiography in AT1R transgenic (heart failure model) and wild-type mice; assay type: in vivo
# Method: as §2
# Transgenic mice overexpressing the human angiotensin II type 1 receptor^7 (AT1R) under the control of the mouse α-myosin heavy chain were generated. These mice are a model of human HF. Cardiomyocyte specific overexpression induced in basal conditions overtime, morphologic changes that mimic those observed during the development of cardiac hypertrophy in humans. In order words, these mice develop age-dependent HF.
# All AT1R mice had EF % less than 40%, similar to HF patients in human. […] LCB2122 treated AT1R mice (2.0 μg/kg/day for 4 weeks) had their cardiac functions improved as opposed to untreated mice. […] The data shown are the individual values of each mouse at weeks 0 and 4. All WT mice had normal EF % independent of LCB2122 treatment throughout the study. All AT1R mice were in HF prior to any treatment.
# [3] = test system: atrial natriuretic factor (ANF); assay: ANF transcript QPCR on ventricles of WT and AT1R mice; assay type: in vivo; conditions: 2.0 μg/Kg/day, 4 weeks, FIG. 13a
# Description: The massive ANF upregulation seen in AT1R mice usually indicative of cardiac stress is attenuated in LCB2122 treated AT1R mice.
# heart cardiomyocytes = assay: TUNEL assay on heart sections of DOX-treated mice; assay type: in vivo; conditions: after 2 weeks, FIG. 11
# Method: as §2
# After these 2 weeks, heart cardiomyocytes were also tested by TUNEL assay (on heart sections).
# primary cardiomyocytes [4] = assay: TUNEL assay, DOX-induced apoptosis in primary cardiomyocyte monolayers; assay type: cell-based
# Method: as §1
# [5] = test system: HepG2 human cancer cell line; assay: Cell Titer Glo growth inhibition, DOX +/- LCB2122; assay type: cell-based
# Description: Indeed, the IC50 of DOX in HepG2 human cancer cell line was identical in the absence or presence of LCB2122. FIG. 8 is a plot representing the percent growth inhibition as measured by Cell Titer Glo assays done on HepG2 cells treated with varying concentrations of DOX+/−LCB-2122 ([…]).
# cardiomyocytes = assay: Sarcomeric alpha-actinin immunofluorescence on cardiomyocytes; assay type: cell-based; conditions: 5 uM, six hours, FIG. 7
# Method: Immunofluorescence were performed on cardiomyocytes as previously described,^16 using a sarcomeric alpha-Actinin antibody (1/500).
# FIG. 7 is a micrograph showing α-actinin immunostaining (straight lines) of 2% PFA-fixed cardiomyocytes treated with a) vehicle (DMSO) or b) LCB2122 (5 uM) for six hours. […] White spots mark the nuclei.
# primary cardiomyocytes [6] = assay: TUNEL assay, Imatinib-induced apoptosis in primary cardiomyocytes; assay type: cell-based; conditions: Cardiomyocyte, 6 hours, FIG. 6, read-out: EC50, prevention of apoptosis induced by Imatinib
# Method: as §1
# [7] = test system: atrial natriuretic factor (ANF); assay: ANF ELISA on blood plasma of WT and AT1R mice; assay type: in vivo; conditions: 2.0 μg/Kg/day, 4 weeks, FIG. 13b
# Method: FIG. 13b) quantification of an ANF ELISA assay done on blood plasma samples from vehicle and LCB2122 (2.0 μg/Kg/day, 4 weeks) treated WT and AT1R mice ventricles. Once again, the increase in ANF plasma levels was attenuated in the LCB2122 treated AT1R mice.
smiles,measurement,setting,value
"CCOP(=O)(OCC)OC[C@H]1O[C@@H](n2cnc3c(N)nc(Cl)nc32)[C@](C)(COCc2ccccc2)[C@@H]1O [LCB2165, ((2R,3S,4R,5R)-5-(6-amino-2-chloro-9H-purin-9-yl)-4-((benzyloxy)methyl)-3-hydroxy-4-methyltetrahydrofuran-2-yl)methyl diethyl phosphate]",IC50,primary cardiomyocytes [1]; 6 h,5 µM
"C#CCOc1ccc(C(=O)c2ccc(C(=O)OC[C@]3(C)[C@H](O)[C@@H](COP(=O)(OCC)OCC)O[C@H]3n3cnc4c(N)nc(Cl)nc43)cc2)cc1 [LCB2191, ((2R,3R,4S,5R)-2-(6-amino-2-chloro-9H-purin-9-yl)-5-(((diethoxyphosphoryl)oxy)methyl)-4-hydroxy-3-methyltetrahydrofuran-3-yl)methyl 4-(4-(prop-2-yn-1-yloxy)benzoyl)benzoate]",IC50,primary cardiomyocytes [1]; 6 h,5 µM
"COc1cccc2c1C(=O)c1c(O)c3c(c(O)c1C2=O)C[C@@](O)(C(=O)CO)C[C@@H]3O[C@H]1C[C@H](N)[C@H](O)[C@H](C)O1 [DOX, Doxorubicin, reference compound]","ejection fraction (EF, %) after DOX alone","[2]; mice, two weeks after DOX ip injection, FIG. 9",decreased significantly
same,ventricular wall thickness after DOX alone,"[2]; wild type mice, DOX (5 μg/kg) as printed",induced also a loss of ventricular wall thickness
"CCOP(=O)(OCC)OC[C@H]1O[C@@H](n2cnc3c(N)nc(Cl)nc32)[C@](C)(CO)[C@@H]1O [LCB2122, ((2R,3S,4R,5R)-5-(6-amino-2-chloro-9H-purin-9-yl)-3-hydroxy-4-(hydroxymethyl)-4-methyltetrahydrofuran-2-yl)methyl diethyl phosphate]",cardiac function (ejection fraction) in AT1R mice,"AT1R mice; 2.0 μg/kg per day for 4 weeks, FIG. 12",significant improvement of the cardiac function
same,cardiac function of normal (WT) mice,AT1R mice; 2.0 μg/kg/day for 4 weeks,did not alter cardiac function of normal mice
same,share of treated AT1R mice with EF % equal and above 40%,AT1R mice; after four weeks of LCB2122,55%
same,ANF transcript upregulation in ventricles,[3],attenuated
same,IC50,primary cardiomyocytes [1]; 6 h,1 µM
same,"apoptotic cardiomyocytes (TUNEL, heart sections)",heart cardiomyocytes,significant decrease of apoptotic cardiomyocytes
same,EC50,"primary cardiomyocytes [4]; Cardiomyocyte, DOX 300 nM, TUNEL, FIG. 4, read-out: EC50, prevention of DOX-induced apoptotic cell death",0.5 µM
same,prevention of DOX-induced apoptotic cell death,"primary cardiomyocytes [4]; DOX 300 nM, 6 hours, FIGS. 3 and 4",completely prevented DOX-induced apoptotic cell death
same,DOX-induced apoptosis over time,"primary cardiomyocytes [4]; DOX 300 nM, at 3, 6 or 24 hours",blocked
same,induction of apoptosis by the compound alone,"primary cardiomyocytes [4]; time course, any time points, FIG. 5",did not induce apoptosis
same,effect on antiproliferative effect of DOX,"[5]; HepG2, DOX +/- LCB2122, FIG. 8",did not affect the antiproliferative effect of DOX
same,effect on HepG2 sensitivity to DOX,[5]; up to 4 μM LCB2122,no effect on HepG2 sensitivity to DOX
same,cytoskeletal organization and cell size (α-actinin immunostaining),cardiomyocytes,does not alter cytoskeletal organization or cell size
same,EC50,primary cardiomyocytes [6],5 µM
same,"ejection fraction (EF, %) after DOX","[2]; DOX ip, LCB2122 micropump for two weeks, FIG. 9",protected against DOX-induced toxicity
same,left ventricle wall thickness after DOX,"[2]; wild type mice, DOX, FIG. 10",protected against this DOX-induced wall thickness
same,increase in ANF plasma levels,[7],attenuated
"CC(C)OP(=O)(OC[C@H]1O[C@@H](n2cnc3c(N)nc(Cl)nc32)[C@](C)(CO)[C@@H]1O)OC(C)C [LCB2177, ((2R,3S,4R,5R)-5-(6-amino-2-chloro-9H-purin-9-yl)-3-hydroxy-4-(hydroxymethyl)-4-methyltetrahydrofuran-2-yl)methyl diisopropyl phosphate]",IC50,"primary cardiomyocytes [1]; 3 μM Doxorubicin, 6 hours, TUNEL apoptotic nuclei, read-out: IC50",5 µM
